Data reported in ChEMBL document CHEMBL6182898, “Design, synthesis and bioevaluation of novel hydrazide derivatives as enhancers of immunotherapy and DNA-damage response in antitumor therapy” (Eur J Med Chem, 2025).
Calls of active or inactive are those of the source. The calls are words filed in the database; no cut-off is given here.

Columns and labels:
[1] = system: B16-F10; assay: Induction of antitumor immunity in mouse B16-F10 cells assessed as reduction in PD-L1 level incubated for 24 hrs by Western blot analysis; type: functional, cell-based; settings: dose 2.5-10 µM
[2] = system: SK-OV-3; assay: cells; type: functional; settings: Homo sapiens, time 72 hrs
[3] = system: HCT-116; assay: cells; type: functional; settings: Homo sapiens, time 72 hrs
[4] = system: B16-F10; assay: cells; type: functional; settings: Mus musculus, time 72 hrs
[5] = system: K562; assay: cells; type: functional; settings: Homo sapiens, time 72 hrs
[6] = system: 4T1; assay: Antiproliferative activity against mouse 4T1 cells incubated for 72 hrs by MTT assay; type: functional, cell-based; settings: 4T1, 72 h
[7] = system: SK-OV-3; assay: Antiproliferative activity against human SK-OV-3 cells incubated for 72 hrs by MTT assay; type: functional, cell-based; settings: SK-OV-3, 72 h
[8] = system: B16-F10; assay: Antiproliferative activity against mouse B16-F10 cells incubated for 72 hrs by MTT assay; type: functional, cell-based; settings: B16-F10, 72 h
[9] = system: K562; assay: Antiproliferative activity against human K562 cells incubated for 72 hrs by CCK8 assay; type: functional, cell-based; settings: K562, 72 h
[10] = biological target: Histone deacetylase 1 (Homo sapiens, UniProt Q13547); assay: Inhibition of HDAC1 (unknown origin)
Sequence of Histone deacetylase 1 (Q13547 whole entry): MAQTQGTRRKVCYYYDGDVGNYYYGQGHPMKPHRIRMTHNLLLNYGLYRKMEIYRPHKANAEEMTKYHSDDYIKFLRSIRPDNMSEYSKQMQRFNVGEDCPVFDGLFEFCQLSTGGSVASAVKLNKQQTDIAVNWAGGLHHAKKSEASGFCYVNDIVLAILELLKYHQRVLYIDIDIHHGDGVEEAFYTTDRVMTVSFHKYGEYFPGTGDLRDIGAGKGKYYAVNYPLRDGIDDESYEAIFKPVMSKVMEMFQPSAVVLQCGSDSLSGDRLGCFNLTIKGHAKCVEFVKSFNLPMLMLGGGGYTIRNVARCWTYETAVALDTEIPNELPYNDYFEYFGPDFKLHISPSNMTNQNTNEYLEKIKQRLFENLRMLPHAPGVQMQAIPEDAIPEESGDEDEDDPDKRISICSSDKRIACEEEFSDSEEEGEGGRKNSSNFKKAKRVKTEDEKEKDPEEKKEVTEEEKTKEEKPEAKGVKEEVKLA

[11] = biological target: Histone deacetylase 3 (Homo sapiens, UniProt O15379); assay: Inhibition of HDAC3 (unknown origin)
Sequence of Histone deacetylase 3 (O15379 whole entry): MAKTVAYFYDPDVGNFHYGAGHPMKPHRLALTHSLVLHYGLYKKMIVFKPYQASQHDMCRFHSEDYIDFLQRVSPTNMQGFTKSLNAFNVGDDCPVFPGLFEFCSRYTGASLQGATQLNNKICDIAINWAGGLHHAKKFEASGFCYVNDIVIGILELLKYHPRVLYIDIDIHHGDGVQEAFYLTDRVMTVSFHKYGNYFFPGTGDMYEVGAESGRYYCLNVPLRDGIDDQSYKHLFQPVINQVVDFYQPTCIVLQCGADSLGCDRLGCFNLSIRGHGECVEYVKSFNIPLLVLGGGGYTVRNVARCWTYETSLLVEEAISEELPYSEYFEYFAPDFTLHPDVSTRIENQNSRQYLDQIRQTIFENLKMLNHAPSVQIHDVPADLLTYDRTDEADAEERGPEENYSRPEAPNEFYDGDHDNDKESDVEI

[12] = system: B16-F10; assay: Inhibition of cell migration in mouse B16-F10 cells at 5 uM by transwell assay relative to control; type: functional
[13] = system: B16-F10; assay: Inhibition of cell invasion in mouse B16-F10 cells at 5 uM by transwell assay relative to control; type: functional
[14] = system: B16-F10; assay: Anti-migratory activity in mouse B16-F10 cells at 1.25 to 5 uM measured after 36 hrs by wound healing assay relative to control; type: functional; settings: dose 1.25-5 µM
[15] = system: B16-F10; assay: Induction of apoptosis in mouse B16-F10 cells incubated for 48 hrs by Annexin V-FITC/PI staining based flow cytometry; type: functional, cell-based; settings: dose 2.5-10 µM
[16] = system: B16-F10; assay: Induction of apoptosis in mouse B16-F10 cells assessed as late-stage apoptosis at 2.5 uM incubated for 48 hrs by Annexin V-FITC/PI staining based flow cytometry relative to control; type: functional
[17] = system: B16-F10; assay: Induction of apoptosis in mouse B16-F10 cells assessed as late-stage apoptosis at 5 uM incubated for 48 hrs by Annexin V-FITC/PI staining based flow cytometry relative to control; type: functional
[18] = system: B16-F10; assay: Induction of apoptosis in mouse B16-F10 cells assessed as late-stage apoptosis at 10 uM incubated for 48 hrs by Annexin V-FITC/PI staining based flow cytometry relative to control; type: functional
[19] = system: B16-F10; assay: Induction of cell cycle arrest in mouse B16-F10 cells assessed as cell accumulation incubated for 24 hrs by PI staining based flow cytometry; type: functional; settings: dose 2.5-10 µM
[20] = biological target: T1, Histone deacetylase 3 (Mus musculus) (UniProt O88895); assay: Inhibition of HDAC3 in mouse B16-F10 cells assessed as increase in Ac-H3 level incubated for 24 hrs by Western blot analysis; type: cell-based; settings: dose 2.5-10 µM
T1 sequence (whole entry): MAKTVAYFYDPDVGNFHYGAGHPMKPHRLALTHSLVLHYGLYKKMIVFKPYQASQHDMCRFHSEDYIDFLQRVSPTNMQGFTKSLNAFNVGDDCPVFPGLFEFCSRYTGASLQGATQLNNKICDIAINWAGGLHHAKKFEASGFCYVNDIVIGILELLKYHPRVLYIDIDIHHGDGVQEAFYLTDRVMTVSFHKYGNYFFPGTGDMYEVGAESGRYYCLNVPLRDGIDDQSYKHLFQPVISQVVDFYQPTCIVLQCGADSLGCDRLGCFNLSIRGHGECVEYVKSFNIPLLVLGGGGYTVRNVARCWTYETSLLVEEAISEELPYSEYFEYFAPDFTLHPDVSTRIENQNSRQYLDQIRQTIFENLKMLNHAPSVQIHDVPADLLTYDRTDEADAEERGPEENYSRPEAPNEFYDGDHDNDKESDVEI

[21] = biological target: T1, Histone deacetylase 3 (Mus musculus); assay: Inhibition of HDAC3 in mouse B16-F10 cells assessed as increase in Ac-H3K56 level at 2.5 to 10 uM incubated for 24 hrs by Western blot analysis; type: cell-based; settings: dose 2.5-10 µM
[22] = system: B16-F10; assay: Upregulation of Ac-alpha-tubulin level in mouse B16-F10 cells at 2.5 to 10 uM incubated for 24 hrs by Western blot analysis; type: functional, cell-based; settings: dose 2.5-10 µM
[23] = system: B16-F10; assay: Induction of antitumor immunity in mouse B16-F10 cells assessed as increase in IFN-gamma level incubated for 24 hrs by Western blot analysis; type: functional, cell-based; settings: dose 2.5-10 µM
[24] = system: B16-F10; assay: Induction of antitumor immunity in mouse B16-F10 cells assessed as decrease in NCOR2 level at 2.5 to 10 uM incubated for 24 hrs by Western blot analysis; type: functional, cell-based; settings: dose 2.5-10 µM
[25] = biological target: T1, Histone deacetylase 3 (Mus musculus); assay: Inhibition of HDAC3 in mouse B16-F10 cells assessed as reduction in PD-L1 level at 2.5 uM incubated for 24 hrs by immunofluorescence based analysis; type: cell-based

SMILES	Activity [1]	inhibition at 10 µM [2] [%]	inhibition at 10 µM [3] [%]	inhibition at 10 µM [4] [%]	inhibition at 10 µM [5] [%]	IC50 [6] [µM]	IC50 [7] [µM]	IC50 [8] [µM]	IC50 [9] [µM]	IC50 [10] [µM]	IC50 [11] [µM]	inhibition at 5 µM [12] [%]	inhibition at 5 µM [13] [%]	Activity [14] [%]	Activity [15]	Activity [16] [%]	Activity [17] [%]	Activity [18] [%]	Activity [19]	inhibition [20]	other results
CCCNNC(=O)c1ccc(NC(=O)c2cnc(-c3ccc(OC(F)(F)F)cc3)s2)cc1	Dose-dependent-effect; Activity Was Similar To Ms-275	< 50	< 50	54.7	52.6	7.57	8.37	6.07	4.57	1.57	0.4	> 70	> 70	>80	Dose-dependent-effect; Activity Similar To Vorinostat	24	45.8	55.3	Dose-dependent-effect	Dose-dependent-effect	inhibition [21]: Active; Activity [22]: inactive; Activity [23]: Dose-dependent-effect; Activity Was Similar To Ms-275; Activity [24]: Active; inhibition [25]: Active
CCCNNC(=O)CCCCCCNC(=O)c1cnc(-c2ccc(NC(=O)OC(C)(C)C)cc2)s1	Dose-dependent-effect; Activity Was Similar To Ms-275	< 50	93.6	60.7	73.1	9.83	5.76	5.22	1.06	4.68	0.31	> 70	> 70	>80	Dose-dependent-effect; Activity Similar To Vorinostat	20.6	43.5	51.5	Dose-dependent-effect	Dose-dependent-effect	inhibition [21]: Active; Activity [22]: inactive; Activity [23]: Dose-dependent-effect; Activity Was Similar To Ms-275; Activity [24]: Active; inhibition [25]: Active
